In US7087623B2, “Thiazole and other heterocyclic ligands for mammalian dopamine, muscarinic and serotonin receptors and transporters, and methods of use thereof” (Sepracor Inc., priority 2001, dated 2006):
Read-outs that look alike come from different tables or passages of the source.

Columns and labels:
[1] = biological target: T1, human serotonin 5-HT6 receptor (Homo sapiens, UniProt P50406); assay: Radioligand binding assay, human 5-HT6 receptors ([3H]LSD)
T1 construct: expressed in transfected cells; host or cells: HeLa/E6-7
Experimental: (§1) The human 5-HT2a and 5-HT2b screens were conducted according to Bonhaus, D. W. et al. Br. J. Pharmacol. 1995, 115, 622. The human 5-HT2c screen was conducted according to Wolf, W. A. et al. J. Neurochem. 1997, 69, 1449. The human 5-HT6 screen was conducted according to Monsma, F. J. et al. Mol. Pharmacol. 1993, 43, 320.
This assay measures binding of [^3H]LSD (lysergic acid diethylamide) to human serotonin 5-HT6 receptors. HeLa/E6–7 cells stably transfected with a plasmid encoding the human serotonin 5-HT6 receptor were used to prepare membranes in modified Tris-HCl pH 7.4 buffer using standard techniques. A 30 μg aliquot of membrane was incubated with 1.5 nM [^3H]LSD for 120 minutes at 37° C. Non-specific binding was estimated in the presence of 5 μM 5-HT. Membranes were filtered and washed 3 times and the filters were counted to determine [^3H]LSD specifically bound. See Monsma, Jr., F. J. et al. “Cloning and expression of a novel serotonin receptor with high affinity for tricyclic psychotropic drugs” Mol. Pharmacol. 43: 320–327, 1993.
(§2) The human 5-HT2a and 5-HT2b screens were conducted according to Bonhaus, D. W. et al. Br. J. Pharmacol. 1995, 115, 622. The human […], W. A. et al. J. Neurochem. 1997, 69, 1449. The human 5-HT6 screen was conducted according to Monsama, F. J. et al. Mol. Pharmacol. 1993, 43, 320. The assay to human D3 receptors was conducted according to Sokoloff, P. et al. Nature 1990, 347;146. The human dopamine transporter assay was conducted according to Gu, H. et. al. J. Biol. Chem. 1994, 269 (10);7124; and Giros, B. et al. Trends. Pharmacol. Sci. 1993, 14: 43. The human muscarinic M1–M4 screens were conducted according to Buckley N. J. et al. Mol. Pharmacol. 1989, 35:469.

[2] = biological target: T2, human dopamine D3 receptor (Homo sapiens, UniProt P35462); assay: Radioligand binding assay, human dopamine D3 receptors ([3H]Spiperone)
T2 construct: expressed in transfected cells; host or cells: CHO
Experimental: The assay for binding to human D3 receptors was conducted according to Sokoloff, P. et al. Nature 1990, 347, 146.
CHO cells stably transfected with a plasmid encoding the human dopamine D3 receptor were used to prepare membranes in modified Tris-HCl pH 7.4 buffer using standard techniques. […] Non-specific binding was estimated in the presence of 25 μM S-(−)-sulpiride. […] See Sokoloff, P. et al. “Molecular cloning and characterization of a novel dopamine receptor (D3) as a target for neuroleptics” Nature 347: 146–151, 1990.
as §2

[3] = biological target: T3, human dopamine transporter (Homo sapiens, UniProt Q01959); assay: Binding to human dopamine transporter ([125I]RTI-55); conditions: human; Example 100 table; read-out: IC50 (nM) DAT
T3 construct: expressed in transfected cells; host or cells: CHO-K1
Experimental: CHO-K1 cell membranes stably transfected with a plasmid encoding the human dopamine transporter were prepared in modified Tris-HCl pH 7.4 buffer using standard techniques. […] Non-specific binding was estimated in the presence of 10 μM nomifensine. […] Trends. […]

[4] = biological target: T4, human serotonin 5-HT2A receptor (Homo sapiens, UniProt P28223); assay: Radioligand binding assay, human 5-HT2A receptors ([3H]Ketanserin)
T4 construct: expressed in transfected cells; host or cells: CHO-K1
Experimental: as §1
CHO-K1 cells stably transfected with a plasmid encoding the human serotonin 5-HT2A receptor were used to prepare membranes in modified Tris-HCl pH 7.7 buffer using standard techniques. […] Non-specific binding was estimated in the presence of 1 μM mianserin. […] See Bonhaus, D. W. et al. “The pharmacology and distribution of human 5-hydroxytryptamine2B (5-HT2B) receptor gene products: comparison with 5-HT2A and 5-HT2C receptors” Brit. J. Pharmacol. 115: 622–628, 1995; and Saucier, C and Albert, P. R. “Identification of an endogenous 5-hydroxytryptamine2A receptor in NIH-3T3 cells: agonist-induced down-regulation involves decreases in receptor RNA and number” J. Neurochem. 68: 1998–2011, 1997.
as §2

[5] = biological target: T5, human serotonin 5-HT2B receptor (Homo sapiens, UniProt P41595); assay: Radioligand binding assay, human 5-HT2B receptors ([3H]LSD)
T5 construct: expressed in transfected cells; host or cells: CHO-K1
Experimental: This assay measures binding of [^3H]LSD to human serotonin 5-HT2B receptors. CHO-K1 cells stably transfected with a plasmid encoding the human serotonin 5-HT2B receptor were used to prepare membranes in modified Tris-HCl pH 7.4 buffer using standard techniques. […] Non-specific binding was estimated in the presence of 10 μM serotonin. Membranes were filtered and washed 3 times and the filters were counted to determine [^3H]LSD specifically bound. See Bonhaus, D. W. et al. “The pharmacology and distribution of human 5-hydroxytryptamine2B (5-HT2B) receptor gene products: comparison with 5-HT2A and 5-HT2C receptors” Brit.
The human 5-HT2b screen was conducted according to Wolf, W. A. et al. J. Neurochem.

[6] = biological target: T6, human serotonin 5-HT2C receptor (Homo sapiens, UniProt P28335); assay: Radioligand binding assay, human 5-HT2C receptors ([3H]Mesulergine)
T6 construct: expressed in transfected cells; host or cells: CHO-K1
T6 sequence (P28335 33-458): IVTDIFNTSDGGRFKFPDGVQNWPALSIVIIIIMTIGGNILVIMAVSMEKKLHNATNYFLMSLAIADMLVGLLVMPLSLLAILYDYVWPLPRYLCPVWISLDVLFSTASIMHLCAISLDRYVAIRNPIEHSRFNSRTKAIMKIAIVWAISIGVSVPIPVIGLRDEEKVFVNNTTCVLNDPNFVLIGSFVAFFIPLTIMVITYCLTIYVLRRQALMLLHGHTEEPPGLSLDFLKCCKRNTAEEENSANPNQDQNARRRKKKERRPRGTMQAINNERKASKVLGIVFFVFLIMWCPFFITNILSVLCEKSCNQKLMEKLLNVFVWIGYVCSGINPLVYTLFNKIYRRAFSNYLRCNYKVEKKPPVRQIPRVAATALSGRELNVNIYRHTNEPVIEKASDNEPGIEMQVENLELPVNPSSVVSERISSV
Experimental: as §1
CHO-K1 cells stably transfected with a plasmid encoding the human serotonin 5-HT2C receptor were used to prepare membranes in modified Tris-HCl pH 7.7 buffer using standard techniques. […] Non-specific binding was estimated in the presence of 1 μM mianserin. […] See Wolf, W. A. and Schutz, J. S. “The serotonin 5-HT2C receptor is a prominent serotonin receptor in basal ganglia: evidence from functional studies on serotonin-mediated phosphoinositide hydrolysis” J. Neurochem. 69: 1449–1458, 1997.
as §2

[7] = human, Example 100 table, read-out: IC50 (nM) 5-HT6
[8] = human, Example 100 table, read-out: IC50 (nM) D3
[9] = human 5-HT2a, Example 16 table, read-out: IC50 (nM) 5-HT2a
[10] = human 5-HT2b, Example 16 table, read-out: IC50 (nM) 5-HT2b
[11] = human 5-HT2c, Example 16 table, read-out: IC50 (nM) 5-HT2c
[12] = human 5-HT6, Example 16 table, read-out: IC50 (nM) 5-HT6
[13] = Example 20 table, read-out: IC50 (nM) Against Human D3 Receptors
[14] = human, Example 100 table, read-out: IC50 (nM) 5-HT2A
[15] = human, Example 100 table, read-out: IC50 (nM) 5-HT2B
[16] = human, Example 100 table, read-out: IC50 (nM) 5-HT2C

T2 sequence (P35462 whole entry): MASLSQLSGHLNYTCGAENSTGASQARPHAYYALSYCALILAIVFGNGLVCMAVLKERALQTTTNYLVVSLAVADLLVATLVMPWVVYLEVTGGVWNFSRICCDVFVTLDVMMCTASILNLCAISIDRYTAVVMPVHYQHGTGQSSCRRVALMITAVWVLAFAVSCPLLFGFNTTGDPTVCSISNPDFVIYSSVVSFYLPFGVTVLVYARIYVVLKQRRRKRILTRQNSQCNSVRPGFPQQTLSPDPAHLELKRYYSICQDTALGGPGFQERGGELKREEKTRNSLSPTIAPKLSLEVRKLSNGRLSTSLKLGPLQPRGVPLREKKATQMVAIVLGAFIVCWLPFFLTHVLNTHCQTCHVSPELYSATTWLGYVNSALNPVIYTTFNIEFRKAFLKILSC
T5 sequence (P41595 whole entry): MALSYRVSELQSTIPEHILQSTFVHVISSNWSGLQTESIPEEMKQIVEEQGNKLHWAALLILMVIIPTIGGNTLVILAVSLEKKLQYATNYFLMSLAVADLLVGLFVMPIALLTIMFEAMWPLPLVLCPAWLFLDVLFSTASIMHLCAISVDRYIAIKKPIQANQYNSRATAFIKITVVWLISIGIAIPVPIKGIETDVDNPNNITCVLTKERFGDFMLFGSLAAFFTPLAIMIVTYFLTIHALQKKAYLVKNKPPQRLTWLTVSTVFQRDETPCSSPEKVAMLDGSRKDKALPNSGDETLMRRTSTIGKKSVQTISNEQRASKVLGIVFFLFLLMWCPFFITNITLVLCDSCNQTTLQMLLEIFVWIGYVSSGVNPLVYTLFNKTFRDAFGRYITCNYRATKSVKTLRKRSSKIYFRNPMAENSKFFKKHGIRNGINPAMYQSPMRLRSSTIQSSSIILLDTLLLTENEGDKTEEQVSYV
T3 sequence (Q01959 whole entry): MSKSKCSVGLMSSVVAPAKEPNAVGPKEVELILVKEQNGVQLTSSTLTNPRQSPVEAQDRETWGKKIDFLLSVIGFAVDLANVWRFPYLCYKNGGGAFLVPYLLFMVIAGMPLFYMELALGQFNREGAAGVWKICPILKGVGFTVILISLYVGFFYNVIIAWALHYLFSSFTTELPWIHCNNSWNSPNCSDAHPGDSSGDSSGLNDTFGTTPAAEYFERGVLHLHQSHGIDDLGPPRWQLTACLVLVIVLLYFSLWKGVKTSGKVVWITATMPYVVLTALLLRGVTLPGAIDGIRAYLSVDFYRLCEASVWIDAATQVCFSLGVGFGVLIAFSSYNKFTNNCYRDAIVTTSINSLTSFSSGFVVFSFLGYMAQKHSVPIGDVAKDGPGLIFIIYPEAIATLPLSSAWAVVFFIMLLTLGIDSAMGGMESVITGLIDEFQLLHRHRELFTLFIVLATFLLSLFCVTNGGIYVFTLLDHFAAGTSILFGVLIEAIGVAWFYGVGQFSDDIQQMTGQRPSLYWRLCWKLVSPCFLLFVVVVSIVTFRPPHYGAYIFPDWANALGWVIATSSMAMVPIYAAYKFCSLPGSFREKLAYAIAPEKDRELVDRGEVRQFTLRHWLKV
T1 sequence (P50406 whole entry): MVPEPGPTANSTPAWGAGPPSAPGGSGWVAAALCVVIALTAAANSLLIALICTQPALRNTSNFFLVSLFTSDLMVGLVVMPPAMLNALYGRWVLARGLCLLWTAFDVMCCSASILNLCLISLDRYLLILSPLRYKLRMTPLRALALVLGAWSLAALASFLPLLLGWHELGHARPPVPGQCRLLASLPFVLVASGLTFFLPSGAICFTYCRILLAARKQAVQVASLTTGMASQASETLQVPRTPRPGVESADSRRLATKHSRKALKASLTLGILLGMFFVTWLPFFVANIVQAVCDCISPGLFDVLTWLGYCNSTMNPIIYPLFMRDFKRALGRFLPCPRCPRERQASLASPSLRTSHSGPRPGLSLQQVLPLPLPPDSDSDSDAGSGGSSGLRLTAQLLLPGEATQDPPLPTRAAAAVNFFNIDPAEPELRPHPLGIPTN
T4 sequence (P28223 whole entry): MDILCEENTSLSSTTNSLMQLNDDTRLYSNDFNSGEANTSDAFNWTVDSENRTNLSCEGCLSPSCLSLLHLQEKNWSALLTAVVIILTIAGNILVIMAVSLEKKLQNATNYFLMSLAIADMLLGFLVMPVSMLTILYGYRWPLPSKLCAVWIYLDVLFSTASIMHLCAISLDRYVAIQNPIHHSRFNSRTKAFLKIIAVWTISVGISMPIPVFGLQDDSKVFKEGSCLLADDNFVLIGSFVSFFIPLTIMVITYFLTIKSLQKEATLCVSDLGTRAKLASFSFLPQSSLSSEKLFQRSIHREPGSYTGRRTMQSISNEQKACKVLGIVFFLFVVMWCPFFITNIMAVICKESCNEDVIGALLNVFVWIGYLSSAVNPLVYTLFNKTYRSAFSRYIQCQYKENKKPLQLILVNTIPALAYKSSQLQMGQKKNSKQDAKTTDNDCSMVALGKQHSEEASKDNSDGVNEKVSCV

| SMILES | IC50 [1, 7] [nM] | IC50 [2, 8] [nM] | IC50 [4, 9] [nM] | IC50 [5, 10] [nM] | IC50 [6, 11] [nM] | IC50 [1, 12] [nM] | IC50 [2, 13] [nM] | further results |
| --- | --- | --- | --- | --- | --- | --- | --- | --- |
| CN1CCCC1CCNc1nc(C2(c3ccc(Cl)cc3)CCOCC2)cs1 (racemic) [Compound 125, {4-[4-(4-chlorophenyl)-tetrahydropyran-4-yl]-thiazol-2-yl}-[2-(1-methyl-pyrrolidin-2-yl)-ethyl]-amine] | > 1000 | > 1000 | – | – | – | – | – | IC50 [3]: > 1000 nM |
| Clc1ccc(C2(c3csc(C4CCNCC4)n3)CCC2)cc1 [Compound 30, 4-{4-[1-(4-chlorophenyl)cyclobutyl]thiazol-2-yl}-piperidine] | – | – | < 1000 | < 1000 | < 1000 | < 1000 | > 1000 | – |
| CN1CCC(c2nc(C3(c4ccc(Cl)cc4)CCC3)cs2)CC1 [Compound 31] | – | – | > 1000 | < 1000 | < 1000 | < 1000 | < 1000 | – |
| CN1CCN(c2nc(Cc3csc4ccc(Cl)cc34)cs2)CC1 [Compound 33] | – | – | < 1000 | < 10 | < 100 | < 1000 | < 1000 | – |
| CN1CCN(c2nc(C3(c4ccc(Cl)cc4)CCCCC3)cs2)CC1 [Compound 34] | – | – | > 1000 | < 100 | < 100 | < 1000 | < 1000 | – |
| Clc1cccc(C2(c3csc(C4CCCNC4)n3)CCOCC2)c1 (stereo not drawn) [Compound 38] | – | – | > 1000 | > 1000 | > 1000 | < 1000 | > 1000 | – |
| Clc1ccc(C2(c3nc(N4CCNCC4)sc3Cl)CCOCC2)cc1 [Compound 39] | – | – | < 1000 | < 1000 | < 1000 | < 1000 | > 1000 | – |
| CN1CCN(c2nc(C3(c4ccc(C(F)(F)F)cc4)CCOCC3)cs2)CC1 [Compound 43] | – | – | > 1000 | > 1000 | > 1000 | < 1000 | < 1000 | – |
| CN1CCN(c2nc(C3(c4ccc(F)cc4)CCOCC3)cs2)CC1 [Compound 47] | – | – | – | – | – | – | – | IC50 ([4]; IC50 (nM) 5-HT2a, human 5-HT2a, Example 16 table): > 1000 nM; IC50 [5]: > 1000 nM; IC50 ([6]; IC50 (nM) 5-HT2c, human 5-HT2c, Example 16 table): > 1000 nM; IC50 ([1]; IC50 (nM) 5-HT6, human 5-HT6, Example 16 table): < 1000 nM; IC50 ([2]; IC50 (nM) Against Human D3 Receptors, Example 20 table): > 1000 nM |
| COc1ccc(C2(c3csc(N4CCN(C)CC4)n3)CCOCC2)cc1 [Compound 51] | – | – | > 1000 | > 1000 | > 1000 | < 1000 | > 1000 | – |
| CN1CCN(c2nc(C3(c4ccc(OC(F)(F)F)cc4)CCOCC3)cs2)CC1 [Compound 55] | – | – | < 1000 | > 1000 | < 1000 | > 1000 | < 1000 | – |
| COc1cccc(C2(c3csc(N4CCN(C)CC4)n3)CCOCC2)c1 [Compound 67] | < 1000 | > 1000 | – | – | – | – | – | IC50 [4, 14]: > 1000 nM; IC50 [5, 15]: > 1000 nM; IC50 [6, 16]: > 1000 nM |
| Clc1cccc(C2(c3csc(C4CCNCC4)n3)CCOCC2)c1 [Compound 68] | – | – | > 1000 | > 1000 | > 1000 | < 1000 | > 1000 | – |
| CN1CCC(c2nc(C3(c4cccc(Cl)c4)CCOCC3)cs2)CC1 [Compound 69] | – | – | > 1000 | > 1000 | > 1000 | < 1000 | > 1000 | – |
| CC(C)N1CCN(c2nc(C3(c4ccc(Cl)cc4)CCCCC3)cs2)CC1 [Compound 78] | – | – | > 1000 | < 1000 | > 1000 | > 1000 | < 1000 | – |
| CC(C)N1CCN(c2nc(C3(c4ccc(F)cc4)CCCCC3)cs2)CC1 [Compound 80] | – | – | > 1000 | < 1000 | < 1000 | > 1000 | < 1000 | – |
| CN1CCN(c2nc(C3(c4ccc(F)cc4)CCCCC3)cs2)CC1 [Compound 81] | – | – | > 1000 | < 100 | < 1000 | < 1000 | < 1000 | – |
| Clc1ccc(C2(c3csc(NCCN4CCOCC4)n3)CCCC2)cc1 [Compound 99] | < 1000 | > 1000 | – | – | – | – | – | IC50 [3]: < 1000 nM |
| CN1CCCC1CCNc1nc(C2(c3ccccc3F)CCCC2)cs1 (stereo not drawn) [Compound 111] | < 1000 | < 1000 | – | – | – | – | – | IC50 [3]: > 1000 nM |
| Cc1c(-c2csc(N3CCN(C)CC3)n2)sc2ccc(Cl)cc12 [Compound 113] | > 1000 | > 1000 | – | – | – | – | – | IC50 [4, 14]: < 1000 nM; IC50 [5, 15]: > 1000 nM; IC50 [6, 16]: < 1000 nM |
| CN1CCC(N(C)c2nc(C3(c4ccc(Cl)cc4)CCCC3)cs2)C1 (stereo not drawn) [Compound 116] | < 10 | > 1000 | – | – | – | – | – | IC50 [3]: < 1000 nM |
| Fc1ccccc1C1(c2csc(N3CCNCC3)n2)CCCC1 [Compound 121] | < 100 | > 1000 | – | – | – | – | – | IC50 [3]: > 1000 nM |
| Fc1ccccc1C1(c2csc(N3CCN(CC4CC4)CC3)n2)CCCC1 [Compound 122] | < 1000 | < 1000 | – | – | – | – | – | IC50 [3]: < 1000 nM |
| CN1CCCN(c2nc(C3(c4ccccc4F)CCCC3)cs2)CC1 [Compound 139] | < 100 | < 1000 | – | – | – | – | – | IC50 [4, 14]: < 1000 nM; IC50 [5, 15]: < 100 nM; IC50 [6, 16]: < 100 nM |
